Laboratory results taken from patent publication US20230066156A1, “6-SUBSTITUTED, 22-CYANO HYODEOXYCHOLANIC ANALOGUES AND USES THEREOF” (PRECISION BIO-THERAPEUTICS S.R.L., priority 2019, published 2023).
pEC50: −log10 of the molar value. Values joined by “and” are separate entries in the source; they are usually repeats but may differ in a detail not shown here. Equal values may be shown once.

Tests used:
FXR = target: T1, FXR (Homo sapiens, UniProt Q96RI1); experiment: FXR mediated transactivation, IR1 (hsp27)-luciferase reporter in transfected HepG2 cells; type: cell-based; details: compound at 10 μM, HepG2, vs maximal transactivation by CDCA 10 μM, triplicate
T1 construct: expressed in transfected cells; host or cells: HepG2
T1 sequence (Q96RI1 1-486): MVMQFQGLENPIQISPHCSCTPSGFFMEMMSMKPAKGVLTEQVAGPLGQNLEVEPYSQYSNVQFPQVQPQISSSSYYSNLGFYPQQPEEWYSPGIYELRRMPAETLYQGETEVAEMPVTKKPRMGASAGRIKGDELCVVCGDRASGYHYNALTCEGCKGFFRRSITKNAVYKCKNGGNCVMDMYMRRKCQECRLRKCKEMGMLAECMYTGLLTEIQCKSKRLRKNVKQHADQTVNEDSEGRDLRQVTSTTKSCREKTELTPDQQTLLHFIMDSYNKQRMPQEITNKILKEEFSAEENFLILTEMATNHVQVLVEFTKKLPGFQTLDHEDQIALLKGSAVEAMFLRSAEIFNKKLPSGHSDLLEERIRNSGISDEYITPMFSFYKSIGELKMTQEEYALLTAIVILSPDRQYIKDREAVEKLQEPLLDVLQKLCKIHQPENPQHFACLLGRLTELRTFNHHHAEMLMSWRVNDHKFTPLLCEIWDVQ
T1 sequence (P19793 1-462 partner): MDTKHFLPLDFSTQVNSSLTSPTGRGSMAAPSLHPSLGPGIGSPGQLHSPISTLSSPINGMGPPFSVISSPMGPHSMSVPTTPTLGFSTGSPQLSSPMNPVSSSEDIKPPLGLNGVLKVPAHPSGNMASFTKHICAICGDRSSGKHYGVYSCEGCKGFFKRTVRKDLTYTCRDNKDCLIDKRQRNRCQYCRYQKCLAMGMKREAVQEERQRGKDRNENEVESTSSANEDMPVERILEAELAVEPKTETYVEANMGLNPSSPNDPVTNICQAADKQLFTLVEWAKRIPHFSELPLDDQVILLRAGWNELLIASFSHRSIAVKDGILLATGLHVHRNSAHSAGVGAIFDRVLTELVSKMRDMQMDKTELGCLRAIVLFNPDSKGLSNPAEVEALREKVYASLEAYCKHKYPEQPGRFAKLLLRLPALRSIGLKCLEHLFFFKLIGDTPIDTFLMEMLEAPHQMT
Experimental: (§1) Selected compounds were tested in vitro on FXR and TGR5/GPBAR1 receptors (Table 1) using a whole cell model transfected with a reporter genes. The activity was evaluated in comparison with chenodeoxycholic acid (CDCA) and TLCA.
(§2) CDCA is a primary bile acid that functions as an endogenous ligand for FXR, while TLCA is a physiological ligand for TGR5/GPBAR1. In this assay, HepG2 cells (a liver-derived cell line) were cultured at 37° C. in minimum essential medium with Earl's salts containing 10% fetal bovine serum (FBS), 1% L-glutamine, and 1% penicillin/streptomycin. HEK-293T cells were cultured at 37° C. in D-MEM containing 10% fetal bovine serum (FBS), 1% L-glutamine, and 1% penicillin/streptomycin. The transfection experiments were performed using Fugene HD according to manufactured specifications. Cells were plated in a 24-well plate at 5×10^4 cells/well. For FXR mediated transactivation, HepG2 cells were transfected with 100 ng of pSG5-FXR, 100 ng of pSG5-RXR, 100 ng of pGL4.70 a vector encoding the human Renilla gene and 250 ng of the reporter vector p(hsp27)-TK-LUC containing the FXR response element IR1 cloned from the promoter of heat shock protein 27 (hsp27).
(§3) The data on the activity of certain compounds of the invention on TGR5/GPBAR1 are described in the following table 1. In this table, activities for compounds of the invention on GPBAR1 was compared to those of the reference compound TLCA. For % of activity, each compound was tested at the concentration of 10 microM and transactivation activity of TLCA on CRE (i.e. TGR5/GPBAR1) was considered equal to 100%. For selectivity toward FXR, activity was assessed in HepG2 cells transfected with an FXR responsive element (IR1) cloned upstream to the luciferase gene. For calculation of efficacy data, maximal transactivation of IR1 caused by each compound (10 μM) was compared to maximal transactivation caused by CDCA (10 μM). GPBAR1/FXR selectivity calculated as ratio between % of activity toward GPBAR1 and % of activity toward FXR. Each experiment was conducted in triplicate.

human GPBAR1 = target: T2, human GPBAR1 (Homo sapiens, UniProt Q8TDU6); experiment: GPBAR1 mediated transactivation, CRE-luciferase reporter in transfected HEK-293T cells; type: cell-based
T2 construct: expressed in transfected cells; host or cells: HEK-293T
T2 sequence (Q8TDU6 1-330): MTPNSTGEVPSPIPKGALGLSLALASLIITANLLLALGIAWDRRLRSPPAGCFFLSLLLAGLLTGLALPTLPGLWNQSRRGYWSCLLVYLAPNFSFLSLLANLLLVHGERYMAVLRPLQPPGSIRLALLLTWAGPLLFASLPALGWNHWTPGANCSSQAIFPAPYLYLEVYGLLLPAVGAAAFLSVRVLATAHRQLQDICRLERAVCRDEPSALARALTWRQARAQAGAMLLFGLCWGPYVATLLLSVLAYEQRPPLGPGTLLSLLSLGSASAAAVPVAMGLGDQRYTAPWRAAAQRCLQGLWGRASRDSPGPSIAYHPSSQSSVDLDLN
Experimental: as §1, §2
For GPBAR1 mediated transactivation, HEK-293T cells were transfected with 200 ng of pGL4.29, a reporter vector containing a cAMP response element (CRE) that drives the transcription of the luciferase reporter gene luc2P, with 100 ng of pCMVSPORT6-human GPBAR1, and with 100 ng of pGL4.70 a vector encoding the human Renilla gene. In control experiments HEK-293T cells were transfected only with vectors pGL4.29 and pGL4.70 to exclude any possibility that compounds could activate the CRE in a GPBAR1 independent manner. At 24 h post-transfection, cells were stimulated for 18 h with 10 μM TLCA as a control agent or putative GPBAR1 agonists as the same concentration. After treatments, cells were lysed in 100 μL of lysis buffer (25 mM Tris-phosphate, pH 7.8; 2 mM DTT; 10% glycerol; 1% Triton X-100), and 20 μL of cellular lysate was assayed for luciferase activity using the luciferase assay system. Luminescence was measured using Glomax 20/20 luminometer. Luciferase activities were normalized against Renilla activities. Antagonism against FXR of GPBAR1/TGR5 was measured as percent of activity in transactivation assay suing activity of TLCA as example of agonism.
as §3

CC[C@]1(O)C[C@H]2[C@@H]3CC[C@H]([C@H](C)CC#N)[C@@]3(C)CC[C@@H]2[C@@]2(C)CC[C@@H](O)C[C@@H]12 [PBT110B, 3α,6α-dihydroxy-6β-ethyl-24-nor-5β-cholan-23-nitrile]
FXR (% of activity in comparison to 10 μM CDCA) (FXR): 12.3 ± 0.47% | pEC50 (human GPBAR1; HEK-293T CRE-luciferase transactivation): 6.52 | GPBAR1 (% of activity in comparison to 10 μM TLCA) (human GPBAR1; compound at 10 microM, HEK-293T, TLCA = 100%, triplicate): 101.2% and 101.2 ± 4.1% | GPBAR1/FXR selectivity (human GPBAR1; ratio between % of activity toward GPBAR1 and % of activity toward FXR): 8.2
